A word on the IC50: it is the concentration at which inhibition is half-maximal.

The values that follow come from patent US20100022534A1, “2-BENZIMIDAZOLYL-6-MORPHOLINO-4- (AZETIDINE, PYRROLIDINE, PIPERIDINE OR AZEPINE) PYRIMIDINE DERIVATIVES AS PI3K AND MTOR INHIBITORS FOR THE TREATMENT OF PROLIFERATIVE DISORDERS” (AstraZeneca, priority 2006, published 2010).

Assay [1] relates to phosphorylation of Serine 473 in Akt. The assay is described as follows: In vitro phospho-Ser473 Akt assay in MDA-MB-468 cells, Test (c). It is filed as cell-based. The following applies: Homo sapiens, read-out: IC50, inhibition of phosphorylation of Serine 473 in Akt. Here is the method:
(c) In Vitro Phospho-Ser473 Akt Assay
This assay determines the ability of test compounds to inhibit phosphorylation of Serine 473 in Akt as assessed using Acumen Explorer technology (TTP LabTech Limited, Royston, Herts, SG8 6EE, UK), a plate reader that can be used to rapidly quantitate features of images generated by laser-scanning.
A MDA-MB-468 human breast adenocarcinoma cell line (LGC Promochem, Teddington, Middlesex, UK, Catalogue No. HTB-132) was routinely maintained at 37° C. with 5% CO2 up to a confluency of 70-90% in DMEM containing 10% FCS and 1% L-glutamine.
For the assay, the cells were detached from the culture flask using ‘Accutase’ (Innovative Cell Technologies Inc., San Diego, Calif., USA; Catalogue No. AT104) using standard tissue culture methods and resuspended in media to give 5.5×10^4 cells per ml. Aliquots (90 μl) were seeded into each of the inner 60 wells of a black ‘Costar’ 96-well plate (Corning Inc., NY, USA; Catalogue No. 3904) to give a density of ˜5000 cells per well. Aliquots (90 μl) of culture media were placed in the outer wells to prevent edge effects. [An alternative cell handling procedure involved the maintenance of the cells in a ‘SelecT’ robotic device (The Automation Partnership, Royston, Herts SG8 5WY, UK). Cells were resuspended in media to give 5×10^4 cells per ml. […]

In a further assay the target is T1, p110α Type Ia human PI3K (Homo sapiens, UniProt P42336).
T1 construct: full length DNA of each of the p110α, p110β and p110δ Type Ia human PI3K p110 isoforms; 6-His; made in house
T1 sequence (P42336 whole entry, canonical isoform): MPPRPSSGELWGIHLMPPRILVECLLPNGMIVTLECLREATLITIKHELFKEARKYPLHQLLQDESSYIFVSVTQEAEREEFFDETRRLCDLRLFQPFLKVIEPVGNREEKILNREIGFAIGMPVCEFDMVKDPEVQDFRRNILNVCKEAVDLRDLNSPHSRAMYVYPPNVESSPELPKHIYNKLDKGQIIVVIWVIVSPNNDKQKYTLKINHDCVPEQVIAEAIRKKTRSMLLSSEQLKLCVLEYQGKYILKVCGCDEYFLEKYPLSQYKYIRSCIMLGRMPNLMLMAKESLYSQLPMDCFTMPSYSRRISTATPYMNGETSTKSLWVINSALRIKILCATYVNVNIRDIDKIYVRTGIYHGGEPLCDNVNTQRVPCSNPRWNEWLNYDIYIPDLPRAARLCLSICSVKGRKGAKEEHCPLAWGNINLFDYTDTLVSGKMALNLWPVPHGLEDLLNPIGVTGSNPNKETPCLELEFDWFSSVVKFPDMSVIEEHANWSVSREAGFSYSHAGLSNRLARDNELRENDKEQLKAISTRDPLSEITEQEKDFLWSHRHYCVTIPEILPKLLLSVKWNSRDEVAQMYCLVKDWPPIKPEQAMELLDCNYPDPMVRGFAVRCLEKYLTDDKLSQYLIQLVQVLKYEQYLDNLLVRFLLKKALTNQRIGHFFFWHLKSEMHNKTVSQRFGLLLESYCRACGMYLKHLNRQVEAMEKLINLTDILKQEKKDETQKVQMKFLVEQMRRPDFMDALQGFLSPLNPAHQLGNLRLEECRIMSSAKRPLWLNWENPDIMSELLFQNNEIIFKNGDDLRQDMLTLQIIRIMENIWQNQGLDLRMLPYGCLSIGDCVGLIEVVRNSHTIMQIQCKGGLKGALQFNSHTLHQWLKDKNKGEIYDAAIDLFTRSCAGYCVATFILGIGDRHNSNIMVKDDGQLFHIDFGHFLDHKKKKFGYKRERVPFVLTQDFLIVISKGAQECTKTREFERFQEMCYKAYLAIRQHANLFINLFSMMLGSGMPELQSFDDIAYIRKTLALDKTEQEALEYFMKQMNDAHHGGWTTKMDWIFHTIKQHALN
T1 sequence (P27986 whole entry partner, canonical isoform): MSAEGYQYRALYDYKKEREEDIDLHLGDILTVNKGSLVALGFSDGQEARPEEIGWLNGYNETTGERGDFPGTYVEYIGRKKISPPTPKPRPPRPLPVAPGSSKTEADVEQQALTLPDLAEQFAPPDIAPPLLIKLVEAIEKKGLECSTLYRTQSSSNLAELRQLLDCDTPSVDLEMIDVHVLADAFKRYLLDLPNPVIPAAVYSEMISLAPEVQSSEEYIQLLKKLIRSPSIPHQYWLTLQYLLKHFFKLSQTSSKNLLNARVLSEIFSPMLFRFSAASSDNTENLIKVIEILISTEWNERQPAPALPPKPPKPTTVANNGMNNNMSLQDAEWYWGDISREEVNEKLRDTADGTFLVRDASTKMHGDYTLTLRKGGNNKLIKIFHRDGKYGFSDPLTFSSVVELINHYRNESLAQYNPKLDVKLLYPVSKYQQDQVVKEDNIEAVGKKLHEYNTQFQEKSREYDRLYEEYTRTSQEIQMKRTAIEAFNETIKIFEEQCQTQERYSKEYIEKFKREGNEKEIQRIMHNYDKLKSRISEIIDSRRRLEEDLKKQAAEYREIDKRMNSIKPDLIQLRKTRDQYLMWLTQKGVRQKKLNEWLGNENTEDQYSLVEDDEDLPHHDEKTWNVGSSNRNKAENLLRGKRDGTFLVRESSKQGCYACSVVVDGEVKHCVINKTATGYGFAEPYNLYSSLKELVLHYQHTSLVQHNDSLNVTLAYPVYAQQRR
The assay is described as follows: In vitro PI3K enzyme assay (AlphaScreen), Test (a). Format: biochemical. As to conditions: read-out: IC50 versus p110α Type Ia human PI3K. The source says: (a) In Vitro PI3K Enzyme Assay
The assay used AlphaScreen technology (Gray et al., Analytical Biochemistry, 2003, 313: 234-245) to determine the ability of test compounds to inhibit phosphorylation by recombinant Type I PI3K enzymes of the lipid PI(4,5)P2.
DNA fragments encoding human PI3K catalytic and regulatory subunits were isolated from cDNA libraries using standard molecular biology and PCR cloning techniques. The selected DNA fragments were used to generate baculovirus expression vectors. In particular, full length DNA of each of the p110α, p110β and p110δ Type Ia human PI3K p110 isoforms (EMBL Accession Nos. HSU79143, S67334, Y10055 for p110α, p110β and p110δ respectively) were sub-cloned into a pDEST10 vector (Invitrogen Limited, Fountain Drive, Paisley, UK). The vector is a Gateway-adapted version of Fastbac1 containing a 6-His epitope tag. […]
Biotinylated-DiC8-PI(3,4,5)P3 (50 nM; Cell Signals Inc., Catalogue No. 107), recombinant purified GST-Grp1 PH protein (2.5 μM) and AlphaScreen Anti-GST donor and acceptor beads (100 ng; Packard Bioscience Limited, Station Road, Pangbourne, Berkshire, UK, Catalogue No. 6760603M) were added and the assay plates were left for about 5 to 20 hours at room temperature in the dark. The resultant signals arising from laser light excitation at 680 nm were read using a Packard AlphaQuest instrument. […]

`NCCC1CCN(c2cc(N3CCOCC3)nc(-n3c(C(F)F)nc4ccccc43)n2)CC1` [Example 1, 4-[4-(2-aminoethyl)piperidin-1-yl]-2-(2-difluoromethylbenzimidazol-1-yl)-6-morpholinopyrimidine]: the values for the 50% inhibitory concentration (IC50) (in assay [1]; at p110α Type Ia human PI3K) were approximately 10 nM and approximately 200 nM, respectively.
For `O=C(NC1CCN(c2cc(N3CCOCC3)nc(-n3c(C(F)F)nc4ccccc43)n2)CC1)[C@@H]1CCCN1` [Example 3, 2-(2-difluoromethylbenzimidazol-1-yl)-6-morpholino-4-(4-prolylaminopiperidin-1-yl)pyrimidine] the same measures were approximately 100 nM and approximately 400 nM.
